Assay results published in ChEMBL document CHEMBL1201862, “PubChem BioAssay data set” (2004).
Calls of active or inactive are those of the source.

Key:
[1] = inhibitors of firefly luciferase expression or activity, dose response, H4 neuroglioma cells, luminescence (AID 1990); type: functional, cell-based
[2] = inhibitors of SNCA 5'UTR-driven reporter translation, confirmation, H4 neuroglioma cells, luminescence (AID 1988); type: functional, cell-based
J774.A1 = experiment: Confirmation of image-based Screening Assay for Inhibitors of Phagocytosis. [Related pubchem assays (depositor defined):AID1029, AID1643]; type: functional, cell-based; details: Mus musculus
[3] = cytotoxicity in HEK-293T cells, dose response, cytotoxicity control for BCR NF-kB inhibitor project, luminescence, B-cell screen hits (AID 489021); type: functional, cell-based;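 further: HEK-293T cells carrying an NF-kB luciferase reporter; cells exposed to compound for about 14 hours before viability readout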
[4] = biological target: T1, Tyrosine-protein phosphatase non-receptor type 7 (Homo sapiens, UniProt P35236); type: functional
T1 sequence (P35236 whole entry): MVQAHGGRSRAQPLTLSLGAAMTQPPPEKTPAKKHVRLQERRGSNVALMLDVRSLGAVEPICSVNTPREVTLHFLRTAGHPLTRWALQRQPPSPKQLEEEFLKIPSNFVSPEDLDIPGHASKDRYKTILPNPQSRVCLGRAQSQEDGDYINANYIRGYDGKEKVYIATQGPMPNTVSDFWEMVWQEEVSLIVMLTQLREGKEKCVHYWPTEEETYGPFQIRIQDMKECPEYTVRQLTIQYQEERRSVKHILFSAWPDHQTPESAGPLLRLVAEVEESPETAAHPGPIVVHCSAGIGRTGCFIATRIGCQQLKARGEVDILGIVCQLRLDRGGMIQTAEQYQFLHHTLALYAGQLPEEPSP

[5] = biological target: T2, Tyrosine-protein phosphatase non-receptor type 22 (Homo sapiens, UniProt Q9Y2R2); type: functional
[6] = biological target: T2, Tyrosine-protein phosphatase non-receptor type 22; type: functional; remark: listed apart in the source
[7] = biological target: Eukaryotic translation initiation factor 4H (Homo sapiens, UniProt Q15056); experiment: eIF4H inhibition in translation initiation, SAR follow-up (AID 435011); type: functional
[8] = biological target: Polyadenylate-binding protein 1 (Homo sapiens, UniProt P11940); experiment: PABP inhibition in translation initiation, SAR follow-up (AID 435018); type: functional
Hexokinase HKDC1 = biological target: T3, Hexokinase HKDC1 (Homo sapiens, UniProt Q2TB90); experiment: HKDC1 hexokinase inhibitors, dose response, biochemical, W721R variant (AID 504729); type: functional
T3 sequence (Q2TB90 whole entry): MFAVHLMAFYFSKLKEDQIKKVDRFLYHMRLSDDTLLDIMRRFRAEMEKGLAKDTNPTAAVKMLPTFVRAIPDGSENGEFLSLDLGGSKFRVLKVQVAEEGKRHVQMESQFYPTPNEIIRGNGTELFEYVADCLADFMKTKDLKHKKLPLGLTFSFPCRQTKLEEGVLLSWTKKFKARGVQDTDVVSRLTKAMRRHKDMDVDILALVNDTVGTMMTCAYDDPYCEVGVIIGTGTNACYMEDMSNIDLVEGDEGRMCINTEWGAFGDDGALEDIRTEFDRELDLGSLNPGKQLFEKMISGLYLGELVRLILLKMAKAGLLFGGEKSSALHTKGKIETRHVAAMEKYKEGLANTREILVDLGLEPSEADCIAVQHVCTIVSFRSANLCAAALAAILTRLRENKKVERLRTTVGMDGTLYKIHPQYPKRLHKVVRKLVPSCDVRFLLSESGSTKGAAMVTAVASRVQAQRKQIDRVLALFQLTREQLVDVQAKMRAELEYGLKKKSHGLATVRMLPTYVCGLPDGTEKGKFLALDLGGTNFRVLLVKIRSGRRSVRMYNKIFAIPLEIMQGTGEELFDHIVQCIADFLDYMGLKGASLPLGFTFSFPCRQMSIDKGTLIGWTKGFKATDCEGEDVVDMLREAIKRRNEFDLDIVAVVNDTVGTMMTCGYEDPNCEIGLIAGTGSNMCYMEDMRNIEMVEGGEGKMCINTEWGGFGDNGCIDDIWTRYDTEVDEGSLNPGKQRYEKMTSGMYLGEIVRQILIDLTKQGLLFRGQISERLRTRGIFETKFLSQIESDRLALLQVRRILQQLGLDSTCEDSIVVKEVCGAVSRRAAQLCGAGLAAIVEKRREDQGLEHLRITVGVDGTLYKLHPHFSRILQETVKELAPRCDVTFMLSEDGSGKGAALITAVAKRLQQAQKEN

[9] = biological target: T4, RNA-binding protein pos-1 (Caenorhabditis elegans, UniProt G5EF15); experiment: inhibitors of POS-1/mex-3 RNA binding, dose response, biochemical, fluorescence polarization (AID 1964);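 further: purified POS-1 fused to maltose binding protein made in E. coli; potency of compounds blocking POS-1 binding to fluorescent RNA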
T4 sequence (G5EF15 whole entry): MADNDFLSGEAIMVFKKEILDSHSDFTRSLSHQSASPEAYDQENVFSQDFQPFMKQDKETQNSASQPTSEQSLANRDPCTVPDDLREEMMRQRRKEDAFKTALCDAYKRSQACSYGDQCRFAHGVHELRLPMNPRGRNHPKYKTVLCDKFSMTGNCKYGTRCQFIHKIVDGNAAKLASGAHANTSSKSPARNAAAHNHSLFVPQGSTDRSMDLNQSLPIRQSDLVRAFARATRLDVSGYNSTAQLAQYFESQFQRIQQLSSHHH

[10] = biological target: T5, Zinc finger protein mex-5 (Caenorhabditis elegans, UniProt Q9XUB2); experiment: MEX-5/TCR-2 RNA interaction inhibitors, dose response, biochemical, C. elegans, fluorescence polarization (AID 1960)
T5 sequence (Q9XUB2 whole entry): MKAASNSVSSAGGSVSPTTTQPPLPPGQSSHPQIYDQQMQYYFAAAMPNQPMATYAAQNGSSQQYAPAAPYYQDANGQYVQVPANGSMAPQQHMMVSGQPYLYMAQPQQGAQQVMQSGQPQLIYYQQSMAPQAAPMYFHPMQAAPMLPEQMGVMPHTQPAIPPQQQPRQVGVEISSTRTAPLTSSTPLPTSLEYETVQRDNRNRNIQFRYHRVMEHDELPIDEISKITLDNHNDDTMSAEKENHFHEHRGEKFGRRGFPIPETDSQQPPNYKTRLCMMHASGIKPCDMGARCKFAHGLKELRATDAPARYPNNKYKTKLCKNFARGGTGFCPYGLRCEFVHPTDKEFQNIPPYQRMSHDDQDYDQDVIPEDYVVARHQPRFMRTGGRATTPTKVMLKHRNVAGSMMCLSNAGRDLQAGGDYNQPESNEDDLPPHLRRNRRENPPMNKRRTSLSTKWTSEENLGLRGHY

Salmon testes DNA = experiment: DNA intercalators displacing acridine orange, dose response, artefact control for KSHV LANA DNA-binding inhibitor project, biochemical, fluorescence polarization, cherry-picked samples, set 2 (AID 504727); parameters: species or system Salmonidae
ORF 73 = biological target: T6, ORF 73 (Human herpesvirus 8, UniProt O40947); experiment: inhibitors of C-LANA binding to LBS DNA, dose response, biochemical, fluorescence polarization, cherry-picked samples (AID 504725); parameters: species or system Human gammaherpesvirus 8;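 further: fluorescence polarization of a labeled DNA duplex reporting LANA DNA binding; potency is for inhibitors that block LANA binding to the DNA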
T6 sequence (O40947 whole entry): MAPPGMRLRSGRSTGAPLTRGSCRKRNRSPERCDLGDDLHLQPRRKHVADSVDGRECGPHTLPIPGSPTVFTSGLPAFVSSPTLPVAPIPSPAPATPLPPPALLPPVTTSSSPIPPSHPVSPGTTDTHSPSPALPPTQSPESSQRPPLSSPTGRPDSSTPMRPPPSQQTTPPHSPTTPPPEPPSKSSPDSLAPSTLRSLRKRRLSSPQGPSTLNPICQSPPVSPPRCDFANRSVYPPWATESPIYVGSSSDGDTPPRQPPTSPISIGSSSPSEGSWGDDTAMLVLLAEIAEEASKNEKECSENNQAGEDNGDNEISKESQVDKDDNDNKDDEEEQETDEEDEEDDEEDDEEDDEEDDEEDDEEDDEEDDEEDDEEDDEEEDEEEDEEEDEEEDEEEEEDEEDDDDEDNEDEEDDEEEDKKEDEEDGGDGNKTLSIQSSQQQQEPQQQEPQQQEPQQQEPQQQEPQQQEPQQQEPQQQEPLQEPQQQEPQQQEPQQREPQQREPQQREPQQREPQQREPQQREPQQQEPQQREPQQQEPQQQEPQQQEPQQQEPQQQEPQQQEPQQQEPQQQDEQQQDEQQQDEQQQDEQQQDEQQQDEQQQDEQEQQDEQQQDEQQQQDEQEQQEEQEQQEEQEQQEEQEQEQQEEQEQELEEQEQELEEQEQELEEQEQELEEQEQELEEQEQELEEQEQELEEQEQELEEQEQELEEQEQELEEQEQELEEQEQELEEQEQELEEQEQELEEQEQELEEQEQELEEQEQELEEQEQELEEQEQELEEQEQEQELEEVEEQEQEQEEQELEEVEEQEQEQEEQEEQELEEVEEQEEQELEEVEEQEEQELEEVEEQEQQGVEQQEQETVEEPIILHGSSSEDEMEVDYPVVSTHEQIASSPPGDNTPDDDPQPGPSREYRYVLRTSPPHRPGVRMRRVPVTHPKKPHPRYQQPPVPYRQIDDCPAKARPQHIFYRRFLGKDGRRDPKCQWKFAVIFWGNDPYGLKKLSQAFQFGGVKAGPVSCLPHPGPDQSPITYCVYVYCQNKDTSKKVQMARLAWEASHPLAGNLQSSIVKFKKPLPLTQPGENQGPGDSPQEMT

[11] = biological target: Voltage-dependent T-type calcium channel subunit alpha-1H (Homo sapiens, UniProt O95180); experiment: Cav3.2 T-type channel inhibitors, cell-based, synthetic library set 1, calcium flux (AID 493022); type: functional
Mu-type opioid receptor = Mu-type opioid receptor (Homo sapiens, UniProt P35372); experiment: SAR Analysis of Antagonists of the MOR Receptor using an Image-Based Assay - Set 3. [Related pubchem assays (depositor defined):AID1777, AID1785, AID1786, AID1966, AID2133, AID2136, AID2284, AID2285, AID2420]; type: functional
[12] = biological target: T7, Kappa-type opioid receptor (Homo sapiens, UniProt P41145); experiment: SAR analysis of small molecule antagonists of the kappa opioid receptor via a luminescent beta-arrestin assay - Set 4. [Related pubchem assays (depositor defined):AID1777, AID1778, AID1785, AID1786, AID1966, AID2133, AID2136, AID2285]; type: functional
[13] = biological target: Delta-type opioid receptor (Homo sapiens, UniProt P41143); experiment: SAR Analysis of Antagonists of the DOR Receptor using an Image-Based Assay - Set 3. [Related pubchem assays (depositor defined):AID1777, AID1785]; type: functional;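 further: U2OS cells expressing DOR1 and beta-arrestin GFP stimulated with 100 nM SNC80; imaging of GFP-tagged beta-arrestin moving into spots after receptor activation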
[14] = biological target: T7, Kappa-type opioid receptor; experiment: SAR analysis of Antagonists of the Kappa Opioid Receptor (KOR) using an Image-Based Assay - Set 4. [Related pubchem assays (depositor defined):AID1777, AID1785]; type: functional
X-box-binding protein 1 = X-box-binding protein 1 (Homo sapiens, UniProt P17861); type: functional, Cricetulus griseus;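 further: confirmatory dose-response counter-screen serving a CHOP assay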
[15] = biological target: Induced myeloid leukemia cell differentiation protein Mcl-1 (Homo sapiens, UniProt Q07820); type: functional
[16] = biological target: Cystic fibrosis transmembrane conductance regulator/Golgi-associated PDZ and coiled-coil motif-containing protein (Homo sapiens, UniProt P13569+Q9HD26); experiment: CAL PDZ peptide-binding inhibitors, dose response, biochemical, fluorescence polarization, Cerulean-tagged CAL PDZ, cherry-picks (AID 504773)
Beta-galactosidase = Beta-galactosidase (Escherichia coli, UniProt Q8VNN2); experiment: beta-galactosidase enzyme inhibitors and activators, dose response, artefact control for CCR6 antagonist project, biochemical, E. coli enzyme, set 3 (AID 504712); type: functional
[17] = biological target: Eukaryotic translation initiation factor 4E (Mus musculus, UniProt P63073); experiment: eIF4E–eIF4G protein interaction inhibitors, dose response, biochemical, TR-FRET (AID 855); type: functional;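 further: potency for disrupting eIF4E binding to eIF4GI seen as loss of FRET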
INS1 = experiment: beta cell apoptosis inhibitors, cytokine rescue, dose response, luminescence, retest (AID 449756); type: functional, cell-based; details: Rattus norvegicus;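 further: cell death triggered by IL-1 beta plus TNF-alpha plus IFN-gamma mixture; protective hits raise ATP signal compared with cytokine alone wells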

T2 sequence (Q9Y2R2 whole entry): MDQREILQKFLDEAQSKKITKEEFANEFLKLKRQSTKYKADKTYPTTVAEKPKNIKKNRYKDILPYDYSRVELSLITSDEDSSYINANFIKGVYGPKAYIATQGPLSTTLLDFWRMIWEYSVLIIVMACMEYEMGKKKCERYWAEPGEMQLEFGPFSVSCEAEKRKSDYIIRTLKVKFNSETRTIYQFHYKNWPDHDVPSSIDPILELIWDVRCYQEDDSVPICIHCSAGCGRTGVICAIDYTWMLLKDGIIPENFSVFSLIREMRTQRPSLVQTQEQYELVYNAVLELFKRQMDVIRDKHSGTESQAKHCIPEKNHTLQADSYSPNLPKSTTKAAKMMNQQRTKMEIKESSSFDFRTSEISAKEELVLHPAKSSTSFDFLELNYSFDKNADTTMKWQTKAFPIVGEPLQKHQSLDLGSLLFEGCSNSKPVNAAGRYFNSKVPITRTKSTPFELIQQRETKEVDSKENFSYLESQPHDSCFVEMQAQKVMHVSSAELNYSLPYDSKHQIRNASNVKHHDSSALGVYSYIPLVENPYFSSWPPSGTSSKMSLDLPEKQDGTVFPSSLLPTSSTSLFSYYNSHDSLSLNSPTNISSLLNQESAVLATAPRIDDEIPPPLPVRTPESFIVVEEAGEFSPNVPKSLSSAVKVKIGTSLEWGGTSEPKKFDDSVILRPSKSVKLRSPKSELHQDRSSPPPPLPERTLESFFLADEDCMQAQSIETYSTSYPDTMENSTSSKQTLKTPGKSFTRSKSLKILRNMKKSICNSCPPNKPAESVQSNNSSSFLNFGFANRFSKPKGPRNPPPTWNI
T7 sequence (P41145 whole entry): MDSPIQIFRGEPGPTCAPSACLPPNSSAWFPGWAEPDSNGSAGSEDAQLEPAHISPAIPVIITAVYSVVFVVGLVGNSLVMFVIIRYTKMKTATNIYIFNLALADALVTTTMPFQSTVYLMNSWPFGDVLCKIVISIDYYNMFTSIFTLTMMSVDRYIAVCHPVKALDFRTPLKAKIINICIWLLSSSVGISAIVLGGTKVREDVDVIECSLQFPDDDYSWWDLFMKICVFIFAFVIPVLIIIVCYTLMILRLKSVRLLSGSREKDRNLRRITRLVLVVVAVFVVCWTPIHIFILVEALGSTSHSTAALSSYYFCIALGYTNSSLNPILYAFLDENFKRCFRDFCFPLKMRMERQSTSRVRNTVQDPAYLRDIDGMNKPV
Induced myeloid leukemia cell differentiation protein Mcl-1, sequence (Q07820 whole entry): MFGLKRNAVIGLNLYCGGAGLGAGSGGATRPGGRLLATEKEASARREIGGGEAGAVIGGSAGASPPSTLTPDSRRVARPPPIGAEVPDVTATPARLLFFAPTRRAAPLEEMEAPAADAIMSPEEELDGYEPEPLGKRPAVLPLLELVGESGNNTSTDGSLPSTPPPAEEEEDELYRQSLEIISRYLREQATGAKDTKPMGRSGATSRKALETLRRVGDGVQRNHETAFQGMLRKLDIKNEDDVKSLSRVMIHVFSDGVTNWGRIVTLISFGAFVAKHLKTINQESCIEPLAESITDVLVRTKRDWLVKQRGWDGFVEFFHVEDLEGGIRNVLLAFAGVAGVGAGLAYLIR
X-box-binding protein 1, sequence (P17861 whole entry): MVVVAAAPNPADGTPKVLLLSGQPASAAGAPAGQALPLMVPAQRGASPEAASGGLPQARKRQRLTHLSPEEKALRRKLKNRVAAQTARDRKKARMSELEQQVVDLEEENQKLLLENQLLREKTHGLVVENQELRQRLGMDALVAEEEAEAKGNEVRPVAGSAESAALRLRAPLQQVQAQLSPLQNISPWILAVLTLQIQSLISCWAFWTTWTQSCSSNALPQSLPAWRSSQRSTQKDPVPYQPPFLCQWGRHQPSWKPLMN
Cystic fibrosis transmembrane conductance regulator/Golgi-associated PDZ and coiled-coil motif-containing protein, sequence (P13569 whole entry, other chains not shown): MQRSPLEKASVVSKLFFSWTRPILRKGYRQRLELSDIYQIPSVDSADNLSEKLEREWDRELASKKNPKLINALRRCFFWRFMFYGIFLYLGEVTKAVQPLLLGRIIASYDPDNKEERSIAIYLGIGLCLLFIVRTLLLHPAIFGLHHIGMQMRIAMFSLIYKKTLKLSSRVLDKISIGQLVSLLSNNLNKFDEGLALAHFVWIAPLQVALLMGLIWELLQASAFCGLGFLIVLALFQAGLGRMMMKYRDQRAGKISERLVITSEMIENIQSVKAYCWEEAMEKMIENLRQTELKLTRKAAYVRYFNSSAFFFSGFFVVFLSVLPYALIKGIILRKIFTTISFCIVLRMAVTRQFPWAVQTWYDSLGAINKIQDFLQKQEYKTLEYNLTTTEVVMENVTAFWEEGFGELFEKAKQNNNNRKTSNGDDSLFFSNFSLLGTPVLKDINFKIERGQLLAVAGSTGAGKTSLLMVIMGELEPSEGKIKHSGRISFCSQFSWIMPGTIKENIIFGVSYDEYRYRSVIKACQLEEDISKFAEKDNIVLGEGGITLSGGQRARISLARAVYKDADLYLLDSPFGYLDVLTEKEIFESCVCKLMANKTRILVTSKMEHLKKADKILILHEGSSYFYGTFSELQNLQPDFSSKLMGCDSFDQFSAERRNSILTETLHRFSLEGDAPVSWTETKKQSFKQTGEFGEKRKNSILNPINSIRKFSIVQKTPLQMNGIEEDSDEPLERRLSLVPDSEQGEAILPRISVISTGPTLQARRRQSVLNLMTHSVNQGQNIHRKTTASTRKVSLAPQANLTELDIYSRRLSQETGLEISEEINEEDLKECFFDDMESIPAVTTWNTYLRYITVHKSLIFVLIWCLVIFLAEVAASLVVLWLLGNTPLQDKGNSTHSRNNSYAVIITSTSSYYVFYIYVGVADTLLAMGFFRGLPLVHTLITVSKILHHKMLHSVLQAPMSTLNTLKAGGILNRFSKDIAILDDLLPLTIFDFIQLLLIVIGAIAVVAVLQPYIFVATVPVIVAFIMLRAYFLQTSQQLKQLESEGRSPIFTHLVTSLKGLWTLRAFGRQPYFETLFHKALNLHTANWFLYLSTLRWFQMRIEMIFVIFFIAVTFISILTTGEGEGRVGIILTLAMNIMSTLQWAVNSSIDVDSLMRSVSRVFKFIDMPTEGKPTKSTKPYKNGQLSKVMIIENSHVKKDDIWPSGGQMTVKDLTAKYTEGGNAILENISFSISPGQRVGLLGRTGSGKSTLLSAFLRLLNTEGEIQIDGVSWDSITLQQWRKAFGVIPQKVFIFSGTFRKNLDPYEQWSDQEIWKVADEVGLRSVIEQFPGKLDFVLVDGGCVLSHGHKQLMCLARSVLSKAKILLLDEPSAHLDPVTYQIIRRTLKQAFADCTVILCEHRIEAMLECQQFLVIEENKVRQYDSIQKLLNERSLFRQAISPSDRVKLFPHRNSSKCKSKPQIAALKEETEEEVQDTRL
Delta-type opioid receptor, sequence (P41143 whole entry): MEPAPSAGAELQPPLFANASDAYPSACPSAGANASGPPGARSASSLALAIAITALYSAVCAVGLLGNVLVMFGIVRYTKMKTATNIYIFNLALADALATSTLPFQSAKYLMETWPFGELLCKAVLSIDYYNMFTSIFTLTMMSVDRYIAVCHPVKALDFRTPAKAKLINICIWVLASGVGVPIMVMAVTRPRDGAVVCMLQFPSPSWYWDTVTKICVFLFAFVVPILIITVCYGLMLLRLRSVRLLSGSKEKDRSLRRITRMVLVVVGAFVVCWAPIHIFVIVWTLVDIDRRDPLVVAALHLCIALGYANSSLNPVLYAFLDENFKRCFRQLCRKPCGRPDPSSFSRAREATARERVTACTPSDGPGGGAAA
Polyadenylate-binding protein 1, sequence (P11940 whole entry): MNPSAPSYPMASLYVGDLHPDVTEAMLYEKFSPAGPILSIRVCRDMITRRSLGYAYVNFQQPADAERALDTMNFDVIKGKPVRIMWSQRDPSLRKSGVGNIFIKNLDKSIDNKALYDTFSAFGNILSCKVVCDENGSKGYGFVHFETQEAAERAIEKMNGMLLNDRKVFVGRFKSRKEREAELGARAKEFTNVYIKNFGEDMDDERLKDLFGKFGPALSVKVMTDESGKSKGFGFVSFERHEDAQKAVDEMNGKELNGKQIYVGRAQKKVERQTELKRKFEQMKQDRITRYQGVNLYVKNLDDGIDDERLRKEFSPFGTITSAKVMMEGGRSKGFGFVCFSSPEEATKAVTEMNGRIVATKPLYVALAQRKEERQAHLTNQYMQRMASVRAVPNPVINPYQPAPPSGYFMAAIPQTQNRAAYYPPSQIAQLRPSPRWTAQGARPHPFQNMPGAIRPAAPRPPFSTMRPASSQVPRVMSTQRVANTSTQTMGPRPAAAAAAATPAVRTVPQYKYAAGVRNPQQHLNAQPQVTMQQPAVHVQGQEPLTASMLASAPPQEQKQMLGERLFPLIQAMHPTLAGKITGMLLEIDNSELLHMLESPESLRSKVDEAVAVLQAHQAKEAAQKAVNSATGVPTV
Eukaryotic translation initiation factor 4E, sequence (P63073 whole entry): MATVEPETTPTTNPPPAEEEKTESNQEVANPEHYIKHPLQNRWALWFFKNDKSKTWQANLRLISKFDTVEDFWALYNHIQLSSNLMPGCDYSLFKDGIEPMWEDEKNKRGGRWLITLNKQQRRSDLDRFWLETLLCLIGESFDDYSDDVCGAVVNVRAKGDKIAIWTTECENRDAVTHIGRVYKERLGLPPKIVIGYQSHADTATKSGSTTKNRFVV

## CCc1ccc(-c2nc(C(N)=O)c3nc(O)n(-c4ccccc4OC)c3n2)cc1
[1]
  EC50: 8.19 µM (active)
[2]
  EC50: 0.185 µM (active)
J774.A1
  IC50: 12.5 µM (active)

## CCCCCOc1ccc(NC(=O)C(=O)NCCCn2ccnc2)cc1
[3]
  IC50: > 80 µM (inactive)

## CCN(CCO)Cc1csc2ccc(C(C)(C)C)cc12
[4]
  IC50: > 79.4 µM (inactive)
[5]
  IC50: > 79.4 µM (inactive)
[6]
  IC50: > 79.4 µM (inactive)

## COc1ccc(NC(=O)CSc2ccc(-c3ccco3)nn2)cc1OC
[7]
  IC50: 73.8 µM (active)
[8]
  IC50: > 100 µM (inactive)
Hexokinase HKDC1
  IC50: 13.6 µM (active)

## CCc1cc[n+](-c2[n-]c(=O)sc2C=O)cc1
[9]
  EC50: 16.7 µM (active)
[10]
  EC50: 11.8 µM (active)
Salmon testes DNA
  AC50: 141 µM (active)
ORF 73
  AC50: 73.5 µM (active)

## Cc1ccc(-c2nnc(NC(=O)C(C)Oc3ccccc3)o2)cc1C (stereo unspecified)
[11]
  EC50: 2.6 µM (active)

## Cc1ccc(S(=O)(=O)NCc2ccc(C(=O)NC3CCCN(Cc4ccccc4)C3)cc2)cc1 (stereo unspecified)
Mu-type opioid receptor
  IC50: 6.75 µM (active)
[12]
  IC50: 18.6 µM (inactive)
[13]
  IC50: > 32 µM (inactive)
[14]
  IC50: > 32 µM (inactive)

## COCCn1/c(=N/C(=O)/C=C/c2cccs2)sc2cc(NC(C)=O)ccc21
X-box-binding protein 1
  Absolute IC50 (XBP1): 10 µM

## CCc1ccc(S(=O)(=O)/N=C2/C=C(Sc3nc[nH]n3)C(=O)c3ccccc32)cc1
[15]
  IC50: 5.9 µM (active)
[16]
  AC50: 23.1 µM (active)
Beta-galactosidase
  IC50: > 66.6 µM (inactive)
[17]
  IC50: > 64 µM (inactive)
Hexokinase HKDC1
  IC50: 2.46 µM (active)
INS1
  AC50: 7.93 µM (active)
